The results in this text go back to patent US11364242B2, “Treatment agents for inhibiting HIV and cancer in HIV infected patients” (UNIVERSITY OF MARYLAND, BALTIMORE, priority 2015, dated 2022).

Each structure is given as a SMILES string. Like-named read-outs stand apart in the source and are kept apart here.

The subject of one experiment is R5 HIV BaL. As to the kind of experiment: PBL infectivity assay, p24 ELISA day 7. It is filed as cell-based, HIV-1. The note with it: Human immunodeficiency virus 1, BAL; PBLs from three donors. From the text:
(§1) PBLs were isolated from buffy coats of HIV seronegative donors (New York Blood Center). The laboratory-adapted strains HIV BaL and HIV HXB2; primary isolates HIV 92BR020, 92UG031, 93BR029, and 93UG082; and multidrug resistant molecular clone NL4329129-2 were obtained from the NIH AIDS Repository. Primary isolate 2044 was from Paul Clapham (Windeyer Institute), and 1633 and 1638 from the Institute of Human Virology (University of Maryland School of Medicine). Maraviroc, efavirenz, raltegravir, and indinavir were from the NIH AIDS Repository. INK128 was purchased from ApexBio. Proliferation of PBLs was measured by the MTT kit (Roche), following the manufacturer's directions. PBL infectivity assays were performed as described herein.
(§2) PBLs were separated from buffy coats by density centrifugation over Ficoll-Hypaque (Sigma™), and activated by culture in the presence of 1 μg/mL anti-human CD3 antibody (clone x35, Fisher Scientific™) and 2 μg/mL anti-human CD28 antibody (Clone CD28.6, eBioscience™) for 3 days. Activated cells were infected by incubation with virus at a multiplicity of infection (MOI) of 0.001 for 2 hours. […] On day 7, viral replication was measured by p24 ELISA (Coulter) in culture supernatants and cell viability was measured by MTT assays.
(§3) EC50 values were determined by variable slope nonlinear regression analysis. […]
In general terms: ELISA stands for enzyme-linked immunosorbent assay.

The subject of a further experiment is X4 HIV HXB2. Kind of experiment: PBL infectivity assay, p24 ELISA day 7. The class given is cell-based, HIV-1. Particulars: Human immunodeficiency virus 1, HXB2; PBLs from three donors.
Source text: as §1, §2, §3

The test system of another experiment is HIV-1 1633. Kind of experiment: PBL infectivity assay, primary isolate. The class given is cell-based. Particulars: Human immunodeficiency virus 1, PBMC; X4 primary isolate, PBMCs, three donors; read-out: Geometric mean INK128 EC50, nM (95% CI).
Source text: as §1
(§4) PBLs were separated from buffy coats by density centrifugation over Ficoll-Hypaque (Sigma™), and activated by culture in the presence of 1 μg/mL anti-human CD3 antibody (clone x35, Fisher Scientific™) and 2 μg/mL anti-human CD28 antibody (Clone CD28.6, eBioscience™) for 3 days. Activated cells were infected by incubation with virus at a multiplicity of infection (MOI) of 0.001 for 2 hours. Infected cells were washed three times with PBS and cultured in 5% CO2 at 37° C., in RPMI/10% FBS supplemented with 100 units/mL IL-2 (Roche™) and antiviral drugs, in 96-well flat-bottom plates at a density of […] PBLs per 200 μL. Following 3 d of culture, half of the medium was replaced with fresh medium containing IL-2 and antiviral drugs. On day 7, viral replication was measured by p24 ELISA (Coulter) in culture supernatants and cell viability was measured by MTT assays.
(§5) EC50 values were determined by variable slope nonlinear regression analysis. Unpaired two-tailed t tests were used to check for statistical significant differences between INK128 EC50 values of R5 HIV versus X4 HIV in infectivity assays. Nonparametric Mann-Whitney tests were used to compare each treatment group and control group in animal studies. Statistical analyses were performed using GraphPad Prism™ (version 4.0). P<0.05 was considered significant.
(§6) The antiviral activity of INK128 was investigated in PBLs infected with CCR5 (R5)-tropic and CXCR4 (X4)-tropic HIV reference strains BaL and HXB2, respectively.

The subject of the next experiment is HIV-1 1638. As to the kind of experiment: PBL infectivity assay, primary isolate. It is filed as cell-based. The note with it: Human immunodeficiency virus 1, PBMC; X4 primary isolate, PBMCs, three donors; read-out: Geometric mean INK128 EC50, nM (95% CI).
Source text: as §1, §4, §5, §6

The subject of the next experiment is HIV-1 92UG031. Kind of experiment: PBL infectivity assay, primary isolate. It is filed as cell-based. Particulars: Human immunodeficiency virus 1, PBMC; R5 primary isolate, PBMCs, three donors; read-out: Geometric mean INK128 EC50, nM (95% CI).
Source text: as §1, §4, §5, §6

The subject of a further experiment is HIV-1 93UG082. As to the kind of experiment: PBL infectivity assay, primary isolate. It is filed as cell-based. The note with it: Human immunodeficiency virus 1, PBMC; R5 primary isolate, PBMCs, three donors; read-out: Geometric mean INK128 EC50, nM (95% CI).
Source text: as §1, §4, §5, §6

The subject of experiment [1] is R5 and X4 HIV, laboratory-adapted and primary isolates. Kind of experiment: Infectivity assays in primary PBLs, summary over strains. The class given is cell-based. The method, then:
as §4, §6

The next experiment has as its system R5 HIV (JRFL). As to the kind of experiment: Real-time PCR of early reverse transcription products and integrated HIV DNA in infected PBLs. It is filed as cell-based. Particulars: 72 hours, PBLs from two donors. Here is the method: (§7) Activated PBLs were infected with R5 and X4 HIV strains using a MOI of 0.01. Infected cells were cultured in the presence of IL-2 and different concentrations of INK128. Cell aliquots were collected at 16 and 72 hours for analyses of early products of reverse transcription and of integration, respectively, by real time PCR. Detection of early products of reverse transcription was done with primers specific for the R/U5 region (60). For detection of integrated HIV DNA, a real-time nested Alu-HIV PCR assay was used as previously described (61, 62), with the modifications described herein.
DNA was isolated using Miniblood kit (Qiagen™). PCR amplification was performed using Quantitect SYBR Green™ PCR Kit (Qiagen™) in a LightCycler™ (Biorad™). Detection of early products of reverse transcription was done in reactions containing 100 ng of DNA and the primer pair 5′-[…]-3′ (SEQ ID NO. 1) and 5′-[…]-3′ (SEQ ID NO. 2) (R/U5 region) (60). […] Amplified products were analyzed by denaturation/renaturation to verify the specific Tm. The PCR cycle at which the signal entered the exponential range was used for quantification, and HIV copy numbers were corrected for those of α-tubulin. […] As a standard curve for relative quantification of integrated DNA, the Alu-gag was first run using serial dilutions of DNA isolated from HIV infected PBLs (diluted in HIV-negative DNA). […]
A general note: Real-time PCR tracks product formation cycle by cycle.

The subject of a further experiment is X4 HIV (HXB2). The experiment is described as above. The class given is cell-based. Particulars: PBLs from two donors. The method, then: as §7
DNA was isolated using Miniblood kit (Qiagen™). PCR amplification was performed using Quantitect SYBR Green™ PCR Kit (Qiagen™) in a LightCycler™ (Biorad™). Detection of early products of reverse transcription was done in reactions containing 100 ng of DNA and the primer pair 5′-[…]-3′ (SEQ ID NO. 1) and 5′-[…]-3′ (SEQ ID NO. 2) (R/U5 region) (60). […] Amplified products were analyzed by denaturation/renaturation to verify the specific Tm. The PCR cycle at which the signal entered the exponential range was used for quantification, and HIV copy numbers were corrected for those of α-tubulin. […] As a standard curve for relative quantification of integrated DNA, the Alu-gag was first run using serial dilutions of DNA isolated from HIV infected PBLs (diluted in HIV-negative DNA).

Experiment [2] has as its system non small cell lung cancer (NSCLC) A549 cells. As to the kind of experiment: A549 xenograft tumor in NSG mice. It is filed as in vivo. Particulars: 5 mg/kg daily ip for 4 weeks. Here is the method: A xenograft tumor was induced by subcutaneous injection of 5×10^6 non small cell lung cancer (NSCLC) A549 cells in mice according to an embodiment.
A xenograft tumor was induced by subcutaneous injection of 5×10^6 non small cell lung cancer (NSCLC) A549 cells in mice. After 3 weeks, tumors became visible (˜200 mm^3, as measured with calipers). Mice were treated with INK128, or vehicle control (FIG. 10A), daily (via ip) for 4 weeks. INK-128 was used at 5 mg/kg (FIG. 10B). Tumor volume was measured at the indicated time points (FIG. 10C).

Take `CC(C)n1nc(-c2ccc3oc(N)nc3c2)c2c(N)ncnc21` [INK128, 5-(4-amino-1-propan-2-ylpyrazolo[3,4-d]pyrimidin-3-yl)-1,3-benzoxazol-2-amine]: the EC50 in the experiment on R5 HIV BaL amounted to 10.5 nM; with X4 HIV HXB2, 38 nM; in the experiment with HIV-1 1633 it was 17.5 nM; with HIV-1 1638 it was 21.2 nM; with HIV-1 92UG031 it was 10.2 nM; in the experiment with HIV-1 93UG082, 2.89 nM. Also, the EC50 in experiment [1] (Human immunodeficiency virus 1, Lymphocyte, both R5 and X4 HIV in primary lymphocytes) is below 50 nM; in experiment [1] (Human immunodeficiency virus 1, read-out: EC50s ranging, R5 primary isolates, three donors), 2.9 to 10.1 nM; in [1] (Human immunodeficiency virus 1, read-out: EC50s ranging, X4 primary isolates, three donors), 17.5 to 36.7 nM. The results for the integrated provirus result in the experiment with R5 HIV (JRFL) and in the experiment on X4 HIV (HXB2) (72 hours) were “decreased levels” and “did not decrease”, respectively. Also, in the experiment on X4 HIV (HXB2) (16 hours), the R/U5 transcripts result is on record as “did not decrease”. The tumor growth entry in experiment [2] is on record as “inhibits tumor growth”.
